Laboratory results published in US11154482B2, “Peptide, composition and method for anti-hair graying” (Renorigin Innovation Institute Co., Ltd., priority 2020, dated 2021).

Legend:
[1] = DPPH assay; assay type: physicochemical; details: 50 μg/ml peptide, 0.2 mM DPPH, 16 h in the dark at room temperature, absorbance 515 nm
Procedure: 50 μg/ml peptide of SEQ ID NO: 1 was treated with 0.2 mM DPPH for 16 h. Data are represented as the means±SD from three independent experiments. ***p<0.001.
50 μg/ml peptide of SEQ ID NO: 1 was added in 96-well plates and incubated with 0.2 mM DPPH. Plates incubated in the dark for 16 hours at room temperature. After 16 h, the absorbance was measured at 515 nm using an automated plat reader (molecular devices).

[2] = Bleaching of hair; details: 7.5% hydrogen peroxide, 400 μg/ml peptide, 14 days
Procedure: FIG. 4 provides photographs of the hairs decolored with 7.5% hydrogen peroxide. Top panel, 7.5% hydrogen peroxide only; bottom panel, 7.5% hydrogen peroxide and incubated with 400 μg/ml peptide of the invention.
Hairs were treated with 7.5% hydrogen peroxide with or without peptide of SEQ ID NO: 1 for 14 days.

[3] = tested on: B16F10 murine melanoma cells; experiment: Prevention of hydrogen peroxide-induced oxidative stress injury (MTT cell viability assay); assay type: cell-based; details: 50 μg/ml peptide for 24 h, then 0.5 mM hydrogen peroxide for 2 h
Procedure: (§1) B16F10 murine melanoma cells (American Type Culture Collection, Manassas, Va., USA) were cultured in Dulbecco's modified Eagle's medium (DMEM) (Thermo Scientific, Barrington, Ill., USA) with 10% fetal bovine serum (FBS) (Gibco, Grand Island, N.Y., USA) and penicillin/streptomycin (100 IU/[…]) in a humidified atmosphere containing 5% CO2 at 37° C.
(§2) Cells (1×10^3) were seeded in 96-well plates. After treatment with hydrogen peroxide and peptide of SEQ ID NO: 1, MTT was added to a final concentration of 0.5 mg/ml and incubated for 4 h at 37° C. to allow MTT reduction. The formazan crystals were then dissolved in 10% sodium dodecyl sulfate (SDS) containing 0.01 N HCl and absorbance was measured at the dual wavelengths of 570 and 630 nm with a spectrophotometer (VersaMax; Molecular Devices, Silicon Valley, Calif., USA).
Cells were treated with 50 μg/ml peptide of SEQ ID NO: 1 for 24 h and then exposed to 0.5 mM hydrogen peroxide for 2 h.

[4] = tested on: B16F10 murine melanoma cells; experiment: Protection against hydrogen peroxide-induced oxidative stress injury (MTT cell viability assay); assay type: cell-based; details: 30 μM hydrogen peroxide for 24 h, then 50 μg/ml peptide and hydrogen peroxide for 48 h
Procedure: as §1, §2
Cells were exposed to 30 μM hydrogen peroxide for 24 h and then treated with 50 μg/ml peptide of SEQ ID NO: 1 and hydrogen peroxide for 48 h.

FKCRRWQWRMKKL [Peptide of SEQ ID NO: 1]
DPPH radical scavenging capacity [1]: significantly decreased DPPH radical scavenging capacity | hair color after hydrogen peroxide immersion [2]: hair still had bright yellow | hydrogen peroxide-induced stress injury (MTT assay), prevention [3]: attenuates hydrogen peroxide-induced stress injury | hydrogen peroxide-induced stress injury (MTT assay), protection [4]: attenuates hydrogen peroxide-induced stress injury
